≈ marks a conversion by molar mass, not a printed value. Where two headings read alike, the source gives them in different places.

The test system of experiment [1] is S. maltophilia. The experiment can be described thus: Minimum inhibitory concentration in vitro (Example 26). The class given is cell-based. Conditions: Stenotrophomonas maltophilia. As to the method:
(§1) Poly(trimethylene dipyridine-alt-5-oxanonane) having a molecular weight of 0.5 to 1 kDa was tested in A-549 lung epithelial cells to determine its IC50 value in comparison with tobramycin, a conventional antibiotic. In addition, the minimum inhibitory concentrations for the two compounds were determined in vitro for a number of bacterial strains and species. The results are as shown below, where all concentrations are expressed as μg/mL: […]

Experiment [2] relates to B. cepacia. The description is as above. The class given is cell-based. To be noted: Burkholderia cepacia. Here is the method:
as §1

Experiment [3] relates to P. aeruginosa. Described as above. The class given is cell-based. Conditions: Pseudomonas aeruginosa. As to the method:
as §1

Experiment [4] has as its system S. aureus. The experiment is described as above. The class given is cell-based. Conditions: Staphylococcus aureus. Here is the method:
as §1

The test system of experiment [5] is A-549 lung epithelial cells. The experiment can be described thus: IC50 in A-549 lung epithelial cells. It is filed as cell-based. To be noted: Homo sapiens, A549. As to the method: as §1
Experiment [6] deals with P. aeruginosa. Conditions: within 11 passages, published studies; cited from earlier work.
Experiment [7] concerns MRSA. To be noted: over 15 passages, published studies; cited from earlier work.

As a reminder, the MIC is the lowest concentration that inhibits growth of the organism. One may read the IC50 as the concentration that inhibits the measured activity by half. A low value points to greater potency. As to `NC[C@H]1O[C@H](O[C@H]2[C@H](O)[C@@H](O[C@H]3O[C@H](CO)[C@@H](O)[C@H](N)[C@H]3O)[C@H](N)C[C@@H]2N)[C@H](N)C[C@@H]1O` [Tobramycin], the MIC was 25 µg/mL (≈ 53.5 µM) in experiment [1]; > 50 µg/mL in experiment [2]; 0.39 µg/mL (≈ 0.834 µM) in experiment [3] (strain G38, read-out: MIC P. aeruginosa G38); 0.39 µg/mL (≈ 0.834 µM) in experiment [3] (strain PA01, read-out: MIC P. aeruginosa PA01); 0.195 µg/mL (≈ 0.417 µM) in experiment [4]. In addition, in experiment [5], the IC50 is 5000 µg/mL (≈ 10700 µM).
As for `CCn1cc(C(=O)O)c(=O)c2cc(F)c(N3CCNCC3)cc21` [norfloxacin], the “Rise of the MIC” value in experiment [6] is on record as 10 fold; in experiment [7] it was 85 fold.
In the case of gentamicin, in experiment [6], the “Rise of the MIC” value is given as 190 fold.

(Values after patent US20060002888A1, “Polyionenes for treating infections associated with cystic fibrosis” (Genzyme Corporation, priority 2002, published 2006).)
